Results: US20030186464A1, “Surface plasmon resonance methods” (priority 2002, published 2003)
Like-named read-outs stand apart in the source and are kept apart here. Values belong to the compound of their own block, whether it stands above or below them.

Key:
[1] = target: T1, human interleukin-1 receptor type 1 (Homo sapiens, UniProt P14778); assay: SPR inhibition of binding of soluble IL-1 R to an immobilized peptide ligand (Examples 12-13); details: for IC50: inhibition of binding of IL-1 R to the immobilized peptide […]
T1 construct: soluble human II-1 R was allowed to flow over the surface; made in house; host or cells: baculovirus-infected TN-5B1-4 insect cells (High Five)
T1 sequence (P14778 18-336 limits assumed): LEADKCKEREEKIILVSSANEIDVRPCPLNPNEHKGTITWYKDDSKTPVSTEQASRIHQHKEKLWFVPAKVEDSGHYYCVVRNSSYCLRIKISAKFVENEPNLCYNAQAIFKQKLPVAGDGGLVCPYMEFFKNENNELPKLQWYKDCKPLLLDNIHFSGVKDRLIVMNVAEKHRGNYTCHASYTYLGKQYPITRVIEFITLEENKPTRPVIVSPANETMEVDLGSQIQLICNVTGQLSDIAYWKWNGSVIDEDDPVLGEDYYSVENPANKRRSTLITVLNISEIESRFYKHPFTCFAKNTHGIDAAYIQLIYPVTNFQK
Protocol: A CM5 sensor chip (Biacore-BR-1000-14) is docked in a Biacore 2000 SPR device. The chip is then normalized using standard Biacore protocol with 70% glycerol. The chip is next equilibrated in PBS for approximately 1 hr at 20,L/min flow rate. The dextran surface of the chip is activated through an NHS/EDC coupling. This coupling is done using an amine coupling kit (Biacore—BR-100-50) containing N-hydroxysuccinimide (NHS 11.5 mg/mL) and N-ethyl-N′-(3-dimethylaminopropyl) carbodiimide hydrochloride (EDC 75 mg/mL). The two reagents are mixed in a 1:1 ratio and 35 μL of the mixture are injected at 5 μL/min. The activated chip is then modified with a cysteine reactive group, to enable labeling of the CM5 chip with cysteine chemistry. A solution of 100 μM MTSL in PBS is injected at 2 μL/min for 10 min over the activated cell.
A peptide that is a nanomolar inhibitor for the protein of interest was synthesized at Synpep, to include a cysteine residue at the N-terminus. This peptide was brought up to a 100 μM solution in PBS. This solution is then injected over the activated cell at 2 μL/min for 10 min. After injection one measures the change in RUs by marking the RUs at t=0 and t=final and subtracting. This gives the total RU change, which is related to the total mass of peptide successfully coupled to the CM5 surface. The sensorgram is then altered to flow across all four cells on the CM5 chip at 5 μL/min PBS. A solution of 1 M ethanolamine hydrochloride-NaOH pH 8.5 (Amine coupling kit, Biacore—BR-100-50) is injected at […] for 7 min. The peptide is immobilized at a density of 40 fmol/mm^2. The chip is equilibrated overnight in PBS+0.05% azide at 20 μL/min.
IL-1 R is expressed in baculovirus-infected TN-5B1-4 insect cells (High Five) and purified using standard procedures. To determine an appropriate constant concentration of protein to use, a protein titration is first performed. A dilution series of the protein is typically performed to produce seven protein solutions having final concentrations of from 300 nM, 100 nM, 33 nM, 11 nM, 3.7 nM, 1.2 nM, and 0.41 nM in PBS+0.05% azide, and an eighth solution is used as a PBS-only baseline. The protein solutions are injected from lowest concentration to highest at 40 μL/min for 1 min. The SPR software method includes a 1 min wash before injection, the injection and then a 3 min wash after the injection.
These dilutions series are analyzed by BIAevaluation software version 3.0. Sensorgrams are plotted for protein binding to the immobilized peptide cell. The sensorgrams are modified by subtracting the sensorgrams for the appropriate protein dilutions over cell 1 (a blank cell). This subtraction step removes any RU changes that might occur due to nonspecific interactions between the protein and the chip itself or refractive changes in the buffer. Finally, the eight sensorgrams produced from the protein dilution series are zeroed at the average of their starting RUs. Then the sensorgram produced by injecting PBS only is subtracted to reveal the final sensorgrams used to determine relative binding.
To determine KdSPR for the protein, the protein concentration is plotted on the X-axis, while the fraction bound at the plateau of the injection is plotted on the Y-axis. The curve is then analyzed via nonlinear regression analysis (Kaleidagraph, Synergy Software). […] One wants to keep protein constant and non-saturated to be assured of not having an excess of protein in solution. For this protein, 30 nM was chosen. […]

immobilized IL-2 = target: T2, immobilized IL-2 (Homo sapiens, UniProt P60568); assay: Double ligand SPR on immobilized interleukin-2 (Examples 9-11); type: binding
T2 construct: made in house; host or cells: E. coli
Protocol: A CM5 sensor chip (Biacore-BR-1000-14) is docked in a Biacore 2000 SPR device and normalized using a standard Biacore protocol with 70% glycerol. The chip is next equilibrated in PBS for approximately 1 hr at a 20 μL/min flow rate. The dextran surface of the chip is activated through an NHS/EDC coupling. This coupling is done using an amine coupling kit (Biacore—BR-100-50) containing N-hydroxysuccinimide (NHS 11.5 mg/mL) and N-ethyl-N′-(3-dimethylaminopropyl) carbodiimide hydrochloride (EDC 75 mg/mL). First, the two reagents are mixed in a 1:1 ratio and then 35 μL of the mixture are injected at 5 μL/min. The chip is activated one flow cell at a time, and that flow cell is subsequently labeled with protein.
IL-2 is expressed in E. coli cells and purified using standard procedures. Protein is then concentrated to 100 μM and the buffer is exchanged to 100 mM MES pH 5.75 (Nap-5 column, Pierce). A sensorgram is then run over the activated flow cell at 2,L/min of PBS. The IL-2 solution is then injected at 2 μL/min for 10 min. After injection the change in RUs is measured by marking the RUs at t=0 and t=final and subtracting. This gives the total RU change, which is related to the total mass of protein successfully coupled to the CM5 surface. The total mass will later be used to determine stoichiometry of binding. This procedure is then repeated with another arbitrary protein to create a measure for nonspecific binding. The arbitrary protein is immobilized on an adjacent cell. […] The sensorgram is then altered to flow across all four cells on the CM5 chip at 5 μL/min PBS. A solution of 1 M ethanolamine hydrochloride-NaOH pH 8.5 (Amine coupling kit, Biacore-BR-100-50) is injected at 5 μL/min for 7 min. Proteins are immobilized at densities of 100-160 fmol/mm^2. The chip is equilibrated overnight in PBS+0.05% azide+2% DMSO at 20 μL/min.
In this experiment, variable concentrations of a compound are tested at a constant concentration of another compound. The compound held constant is 2c, for example (structure shown in Example 2). To determine appropriate constant concentrations for 2c, a compound titration is first performed. Dilution series of the compounds are typically performed to produce seven solutions having final compound concentrations of 30 mM, 10 mM, 3.3 mM, 1.1 mM, 0.37 mM, 0.12 mM, and 0.041 mM; an eighth solution is a DMSO-only baseline. The compounds are then diluted into PBS+0.05% azide to final concentrations of 300 μM, 100 μM, 33 μM, 11 μM, 3.7 μM, 1.2 μM, 0.41 μM. The compound solutions are injected from lowest concentration to highest at 40 μL/min for 1 min. The SPR software method includes a 1 min wash before injection, the injection and then a 3 min wash after the injection.
These dilution series are analyzed by BIAevaluation software version 3.0. Sensorgrams are plotted for compound binding to the IL-2 labeled cell of the chip. The sensorgrams are modified by subtracting the sensorgrams for the appropriate compound dilutions over cell 1 (a blank cell). This subtraction step removes any RU changes that might occur due to non-specific interactions between the compound and the chip itself or refractive changes in the buffer. Finally, the eight sensorgrams produced from the compound dilution series are zeroed at the average of their starting RUs. Then the sensorgram produced by injecting DMSO only is subtracted to reveal the final sensorgrams used to determine relative binding.
To determine KdSPR for the compound, the compound concentration is plotted on the X-axis, while the fraction bound at the plateau of the injection is plotted on the Y-axis. The curve is then analyzed via non-linear regression analysis (Kaleidagraph, Synergy Software). […] The concentration chosen is where the RUs remain constant at the top of the binding curve and thus the IL-2:2c ratio is 1. For 2c, this concentration is 100 μM.
A second compound is then run, this time in both the presence and absence of 2c. […]

T2 sequence (P60568 21-153): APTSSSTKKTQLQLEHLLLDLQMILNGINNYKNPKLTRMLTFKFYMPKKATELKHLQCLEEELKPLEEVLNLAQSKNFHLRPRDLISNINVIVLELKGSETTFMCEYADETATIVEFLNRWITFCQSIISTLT

SMILES: NC(=O)CC[C@H](NC(=O)[C@H](Cc1ccc(OP(=O)(O)O)cc1)NC(=O)[C@H](Cc1ccc2ccccc2c1)NC(=O)Cc1ccc(O)cc1)C(=O)N1CCN(C(=O)Cc2ccc(O)cc2)CC1 [Compound 21]
IC50 [1]: 10.5 µM

SMILES: COCC(=O)NC1CSc2ccccc2C1=O (stereo not shown) [Compound 20]
Kd,SPR IL-2 (immobilized IL-2; immobilized IL-2, no other compound): Inactive

SMILES: COCCNC(=O)[C@@H]1CCCN1C(=O)c1cc2ccccc2s1 [Compound 1]
Kd (immobilized IL-2; FIG. 7 sensorgrams, 0-500 μM of compound over immobilized IL-2, read-out: apparent Kd): ~175 µM
IC50 (immobilized IL-2; constant 50 μM of 2c, immobilized IL-2, FIG. 9, read-out: IC50 inhibiting the binding of 2c): 185 µM
Kd (immobilized IL-2; dose-response plot of FIG. 9, absence of 2c, read-out: Kd for binding IL-2): 210 µM

SMILES: NC(=O)c1cccc(NC(=O)CCC(=O)NCCc2c[nH]c3ccccc23)c1 [Compound 22]
IC50SPR ([1]; inhibition of binding of IL-1 R to the immobilized peptide CETPFTWEESNAYYWQPYALPL): Inactive

SMILES: N=C(N)N[C@@H](C(=O)NCC(=O)N1CCC(c2cc(-c3ccc(O)cc3Cl)[nH]n2)CC1)C1CCCCC1 [Compound 16]
Kd (immobilized IL-2; Example 11, immobilized interleukin-2, read-out: apparent Kd in SPR experiments): 5 µM

SMILES: NC(=O)Cc1cccc(NC(=O)c2cccc(NC(=O)c3cc4cccc(O)c4cc3O)c2)c1 [Compound 24]
IC50 [1]: 95 µM

The remaining lines, values ahead:

IC50 [1]: 560 µM
SMILES: NC(=O)c1cccc(NC(=O)CCC(=O)Nc2ccc3[nH]ccc3c2)c1 [Compound 23]

IC50 [1]: 240 µM
SMILES: NC(=O)Cc1ccc(NC(=O)NCc2ccc(C3=CN=C(N)NC3)cc2)cc1 [Compound 25]
